Legend:
Format in all cases: cell-based
[1] = biological target: T1, TYK2 (Homo sapiens, UniProt P29597); experiment: TYK2 degradation MSD assay in human PBMC cells; design: endogenous in cells; host or cells: human PBMC; details: 4 to 24 hours incubation, read-out: TYK2 MSD DC50 rating in human PBMC
Procedure, shortened: (§1)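 Cells (0.4 million per well) were treated with a 9-point, 1:3 compound series from a top concentration of 1 to 10 μM for 4 to 24 hours at 37° C, then lysed in RIPA with protease/phosphatase inhibitors. Remaining TYK2 was quantified by sandwich MSD immunoassay; DC50 came from four-parameter nonlinear fits.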

[2] = biological target: T1, TYK2; experiment: TYK2 degradation MSD assay in OCI-LY10 cells; design: endogenous in cells; host or cells: EBV-B cells; details: 4 to 24 hours incubation, read-out: TYK2 MSD DC50 rating in OCI-LY10
Procedure, shortened: as §1

[3] = biological target: T1, TYK2; experiment: TYK2 degradation MSD assay in EBV-B cells; design: endogenous in cells; host or cells: EBV-B cells; details: 4 to 24 hours incubation, read-out: TYK2 MSD DC50 rating in EBV-B
Procedure, shortened: as §1

T1 sequence (P29597 whole entry): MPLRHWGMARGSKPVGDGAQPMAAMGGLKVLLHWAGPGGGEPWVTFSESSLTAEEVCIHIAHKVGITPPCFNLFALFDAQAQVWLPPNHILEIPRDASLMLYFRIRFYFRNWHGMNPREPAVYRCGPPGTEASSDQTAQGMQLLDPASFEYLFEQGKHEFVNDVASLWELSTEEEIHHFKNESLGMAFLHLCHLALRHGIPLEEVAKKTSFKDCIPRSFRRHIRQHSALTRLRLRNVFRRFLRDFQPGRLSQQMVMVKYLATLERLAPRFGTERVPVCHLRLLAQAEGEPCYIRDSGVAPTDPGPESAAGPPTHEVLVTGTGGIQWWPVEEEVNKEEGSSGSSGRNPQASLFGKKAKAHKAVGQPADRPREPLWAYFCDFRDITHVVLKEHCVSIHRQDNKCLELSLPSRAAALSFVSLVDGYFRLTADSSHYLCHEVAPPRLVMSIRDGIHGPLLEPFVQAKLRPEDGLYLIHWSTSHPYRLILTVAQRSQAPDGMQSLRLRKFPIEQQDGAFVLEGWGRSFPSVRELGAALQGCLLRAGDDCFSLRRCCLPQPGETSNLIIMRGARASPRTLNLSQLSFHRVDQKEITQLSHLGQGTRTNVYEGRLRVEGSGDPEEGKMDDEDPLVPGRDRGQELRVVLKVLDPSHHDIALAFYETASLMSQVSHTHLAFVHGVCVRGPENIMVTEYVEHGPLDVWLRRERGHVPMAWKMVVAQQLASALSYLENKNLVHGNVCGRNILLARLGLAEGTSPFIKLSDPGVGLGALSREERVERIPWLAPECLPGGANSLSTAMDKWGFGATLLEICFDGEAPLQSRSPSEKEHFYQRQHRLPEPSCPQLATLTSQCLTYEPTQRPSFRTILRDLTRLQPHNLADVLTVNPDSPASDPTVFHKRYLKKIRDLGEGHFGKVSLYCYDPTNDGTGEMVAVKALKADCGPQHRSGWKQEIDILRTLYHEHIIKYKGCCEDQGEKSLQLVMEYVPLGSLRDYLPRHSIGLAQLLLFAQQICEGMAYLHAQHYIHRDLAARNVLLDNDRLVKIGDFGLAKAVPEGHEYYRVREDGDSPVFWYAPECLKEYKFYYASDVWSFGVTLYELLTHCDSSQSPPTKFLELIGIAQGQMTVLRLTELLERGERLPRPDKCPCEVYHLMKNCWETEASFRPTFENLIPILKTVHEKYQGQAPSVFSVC

With `CNC(=O)c1cnc(Nc2ccc(N3CCN(c4ccc5c(c4)n(C)c(=O)n5C4CCC(=O)NC4=O)CC3)cn2)cc1Nc1cccc(-c2ncc(F)cn2)c1OC` (stereo not drawn) [Example K196] the DC50 [1] was < 1 nM, the DC50 [2] was < 1 nM and the DC50 [3] was > 100 nM.
`CNc1cc(Nc2cccn(-c3ccc(CNCc4ccc(N5CCC(N6CCC(c7ccc8c(c7)n(C)c(=O)n8C7CCC(=O)NC7=O)C6)CC5)cc4)cn3)c2=O)nn2c(C(=O)N[C@@H]3C[C@@H]3F)cnc12` (stereo partly drawn) [Example K437] was tested, and the DC50 [1] was > 100 nM, the DC50 [2] was < 1 nM and the DC50 [3] was > 100 nM.
`CNc1cc(-c2ccc(CN3CCN(c4ccc(-c5ccc6c(c5)n(C)c(=O)n6C5CCC(=O)NC5=O)cc4)CC3)cc2)nn2c(C(=O)N[C@@H]3C[C@@H]3F)cnc12` (stereo partly drawn) [Example K565] was tested, and the DC50 [1] was > 100 nM, the DC50 [2] was > 100 nM and the DC50 [3] was > 100 nM.
`CNc1cc(Oc2ccn(C3CCN(CC4CCN(c5ccc(-c6ccc7c(c6)n(C)c(=O)n7C6CCC(=O)NC6=O)cc5)CC4)CC3)n2)nn2c(C(=O)N[C@@H]3C[C@@H]3F)cnc12` (stereo partly drawn) [Example K549] was tested, and the DC50 [1] was > 100 nM, the DC50 [2] was > 100 nM and the DC50 [3] was > 100 nM.
`CNc1cc(Nc2cccc(CN3CCC(OCC#Cc4cccc5c4n(C)c(=O)n5C4CCC(=O)NC4=O)CC3)c2)nn2c(C(=O)NC3CC3)cnc12` (stereo not drawn) [Example K595] was tested, and the DC50 [1] was > 100 nM, the DC50 [2] was 1 to 10 nM and the DC50 [3] was > 100 nM.
For `Cn1c(=O)n(C2CCC(=O)NC2=O)c2ccc(CCOCCOCCNc3cc(Nc4cccn(-c5ccccn5)c4=O)nn4c(C(=O)N[C@@H]5C[C@@H]5F)cnc34)cc21` (stereo partly drawn) [Example K201], the DC50 [1] was > 100 nM, the DC50 [2] was > 100 nM and the DC50 [3] was > 100 nM.
With `CNc1cc(N2CCc3c(-c4cc(N5CCN(c6ccc7c(c6)n(C)c(=O)n7C6CCC(=O)NC6=O)CC5)ccn4)cccc32)nn2c(C(=O)C[C@@H]3C[C@@H]3F)cnc12` (stereo partly drawn) [Example K652] the DC50 [1] was > 100 nM, the DC50 [2] was > 100 nM and the DC50 [3] was > 100 nM.
In the case of `CNc1cc(Nc2cccn(-c3cccc(C(=O)NCCCCCCCCc4ccc5c(c4)n(C)c(=O)n5C4CCC(=O)NC4=O)c3)c2=O)nn2c(C(=O)N[C@@H]3C[C@@H]3F)cnc12` (stereo partly drawn) [Example K223], the DC50 [1] is reported as 1 to 10 nM, the DC50 [2] is reported as > 100 nM and the DC50 [3] is reported as > 100 nM.
In the case of `CNC(=O)c1cnc(Nc2ccc(C3CCN(Cc4cccc5c4n(C)c(=O)n5C4CCC(=O)NC4=O)CC3)cn2)cc1Nc1cccc(-c2ncc(F)cn2)c1OC` (stereo not drawn) [Example K174], the DC50 [1] is reported as > 100 nM, the DC50 [2] is reported as > 100 nM and the DC50 [3] is reported as 1 to 10 nM.
With `Cn1c(=O)n(C2CCC(=O)NC2=O)c2ccc(-c3ccc(N4CCN(Cc5ccc(-c6cccc(Nc7ccc8ncc(C(=O)NC9CC9)n8n7)c6)nc5)CC4=O)nc3)cc21` (stereo not drawn) [Example K459] the DC50 [1] was > 100 nM, the DC50 [2] was > 100 nM and the DC50 [3] was > 100 nM.
With `CNC(=O)c1cnc(Nc2ccc(C(=O)NCCCCc3cccc4c3n(C)c(=O)n4C3CCC(=O)NC3=O)cn2)cc1Nc1ccccc1S(C)(=O)=O` (stereo not drawn) [Example K190] the DC50 [1] was 1 to 10 nM, the DC50 [2] was > 100 nM and the DC50 [3] was 10 to 100 nM.
For `Cn1c(=O)n(C2CCC(=O)NC2=O)c2ccc(CCCCCCCCCCCCNc3cc(Nc4cccn(-c5ccccn5)c4=O)nn4c(C(=O)N[C@@H]5C[C@@H]5F)cnc34)cc21` (stereo partly drawn) [Example K211], the DC50 [1] was > 100 nM, the DC50 [2] was > 100 nM and the DC50 [3] was > 100 nM.
For `CNc1cc(Nc2cccn(-c3ccc(C(=O)N4CC5(CC(CN6CCN(c7ccc8c(c7)n(C)c(=O)n8C7CCC(=O)NC7=O)CC6)CO5)C4)cn3)c2=O)nn2c(C(=O)N[C@@H]3C[C@@H]3F)cnc12` (stereo partly drawn) [Example K418], the DC50 [1] was > 100 nM, the DC50 [2] was < 1 nM and the DC50 [3] was > 100 nM.
In the case of `CNc1cc(Nc2cccc(C3CCC(CN4CCN(c5ccc(-c6ccc7c(c6)n(C)c(=O)n7C6CCC(=O)NC6=O)cc5)CC4)CC3)c2OC)nn2c(C(=O)N[C@@H]3C[C@@H]3F)cnc12` (stereo partly drawn) [Example K621], the DC50 [1] is reported as > 100 nM, the DC50 [2] is reported as 1 to 10 nM and the DC50 [3] is reported as > 100 nM.
In the case of `CNC(=O)c1cnc(Nc2ccc(C(=O)NCCCCCCCCc3cccc4c3n(C)c(=O)n4C3CCC(=O)NC3=O)cn2)cc1Nc1cccc(-c2ncc(F)cn2)c1OC` (stereo not drawn) [Example K116], the DC50 [1] is reported as 1 to 10 nM, the DC50 [2] is reported as > 100 nM and the DC50 [3] is reported as 1 to 10 nM.
For `CNC(=O)c1cnc(Nc2ccc(CN3CCN(CC4CCN(c5ccc(-c6ccc7c(c6)n(C)c(=O)n7C6CCC(=O)NC6=O)cc5)CC4)CC3)cn2)cc1Nc1cccc(-c2ncc(F)cn2)c1OC` (stereo not drawn) [Example K139], the DC50 [1] was < 1 nM, the DC50 [2] was > 100 nM and the DC50 [3] was < 1 nM.
In the case of `CNC(=O)c1cnc(NC(=O)NCCCCCCCCCc2ccc3c(c2)n(C)c(=O)n3C2CCC(=O)NC2=O)cc1Nc1cccc(-c2ncc(F)cn2)c1OC` (stereo not drawn) [Example K186], the DC50 [1] is reported as 1 to 10 nM, the DC50 [2] is reported as > 100 nM and the DC50 [3] is reported as > 100 nM.
For `CNc1cc(Nc2cccc(-c3ccc(C(=O)N4CCN(CC5CCN(c6ccc(-c7ccc8c(c7)n(C)c(=O)n8C7CCC(=O)NC7=O)cc6)CC5)CC4)cn3)c2OC)nn2c(C(=O)N[C@@H]3C[C@@H]3F)cnc12` (stereo partly drawn) [Example K628], the DC50 [1] was > 100 nM, the DC50 [2] was 1 to 10 nM and the DC50 [3] was > 100 nM.
